61 compounds from patent US20190110476A1, “NOVEL ISOTHIAZOLAMIDES, PROCESSES FOR THEIR PREPARATION AND THEIR USE AS FUNGICIDES” (priority 2014, published 2019) can be followed below.

Marks after values point to notes of the source that are not given here.

The data set in a line: Measurement of LogP values by HPLC on reversed phase columns (EEC directive 79/831 Annex V.A8). The class given is physicochemical. As to the method: The abbreviations and numerations of the substituent positions used in the context of the present invention and in the following Tables are explained in detail in the section Examples hereinafter. Also, the LogP values indicated in the following Tables are explained in detail in the section Examples hereinafter. In case LogP values for different diastereoisomers of a specific compound are […], said LogP values are […] by a “+”. […] Measurement of LogP values was performed according to EEC directive 79/831 Annex V.A8 by HPLC (High Performance Liquid Chromatography) on reversed phase columns with the following methods: […] Lambda-max-values were determined using UV-spectra from 200 nm to 400 nm and the peak values of the chromatographic signals
As for `COc1ccc(CNc2nsc(C(=O)N3CCCc4cc(C)ccc43)c2Cl)cc1` [II-099], the “LogP [a]” value was determined as 4.24 and the “LogP [b]” value came to 4.15. Turning to `COc1ccc(CNc2nsc(C(=O)N[C@H](C)C3CCCCC3)c2Cl)cc1` [I-070], the LogP is 4.56[a].

Turning to `Nc1nsc(C(=O)NCc2cc(F)ccc2F)c1Cl` [I-015], the LogP was 1.88[a]. On to `COc1ccc(CNc2nsc(C(=O)NCc3csc(C)n3)c2Cl)cc1` [I-1217], for which the LogP was 2.69[a]. On to `COc1ccc(CNc2nsc(C(=O)N3CCCCC3)c2Cl)cc1` [II-108], for which the “LogP [a]” value is on record as 3.22 and the “LogP [b]” value was found to be 3.16. Take `CCCS(CC)=Nc1nsc(C(=O)NCc2ccc(F)c(F)c2F)c1F` (centres unmarked) [II-104]: the “LogP [a]” value was 1.96^[a]. On to `CC(C)(C)OC(=O)c1snc(N)c1Cl` [E-VII-003], for which the “LogP [a]” value is 2.66^[a]. On to `CC(C)(C)c1ccc2c(c1)CC(NC(=O)c1snc(N)c1Cl)CC2` (centres unmarked) [I-1534], for which the LogP is 3.94[a]. The same measure, in the same setting: the same measure for `COc1ccc(CNc2nsc(C(=O)NCCc3ccccc3Cl)c2Cl)cc1` [I-877]: 4.07[a]; for `Nc1cc(C(=O)NCC2CCCC2O)sn1` (centres unmarked) [I-774]: 0.63[a]. Still for that read-out and setting: the same measure for `COc1ccc(CNc2nsc(C(=O)NC(C)c3cccc(OC)c3)c2Cl)cc1` (centres unmarked) [I-1234]: 3.68[a]; for `Nc1nsc(C(=O)NCC2CCCC(C(F)(F)F)C2)c1Cl` (centres unmarked) [I-139]: 2.66[a]; for `Nc1cc(C(=O)NCc2ccc(Cl)cc2)sn1` [I-028]: 1.75[a]. As to `Nc1cc(C(=O)Nc2ccccc2)sn1` [I-855], the LogP is 1.41[a]. Turning to `Nc1nsc(C(=O)N(Cc2cc(F)ccc2F)C2CC2)c1Cl` [I-362], the LogP is 2.57[a]. Same read-out and setting: with `Nc1nsc(C(=O)NCC23CCC(CC2)C3)c1Cl` [I-822] the figure was 2.53[a]. Still for that read-out and setting: the same measure for `Cc1c(N)nsc1C(=O)NCc1c(F)cc(F)cc1F` [I-583]: 1.69[a]; for `Cc1ccc(NC(=O)c2snc(N)c2Br)cc1Cl` [I-965]: 2.88[a]; for `Nc1nsc(C(=O)NCC2(O)CCCCC2)c1Cl` [I-138]: 1.51[a]. On the same count and under the same terms, the same measure for `CCc1ccccc1CN(C(=O)c1snc(NCc2ccc(OC)cc2)c1Cl)C1CC1` [I-890]: 4.74[a]. Consider `Nc1nsc(C(=O)NCC2CCC(Cl)CC2)c1Cl` (centres unmarked) [I-1579], for which the LogP is 2.20[a]. As for `C[C@H](NC(=O)c1snc(N)c1C(F)F)C1CCCCC1` [I-270], the LogP is 2.96[a]. The same measure, in the same setting: with `COc1ccc(CNc2nsc(C(=O)N(Cc3cc(Cl)ccc3Br)C3CC3)c2Cl)cc1` [I-989] the figure was 4.98[a]; with `Nc1nsc(C(=O)NCC2CCCC2O)c1Cl` (single isomer, unassigned) [I-772], 1.09[a].

Turning to `COc1ccc(CNc2nsc(C(=O)NCC3(C)CCC(C)CC3)c2Cl)cc1` (centres unmarked) [I-825], the LogP was 4.84[a].

Take `O=C(NCc1ccc(Cl)cc1)c1snc(N(Cc2ccccc2)Cc2ccccc2)c1-c1ccc(F)cc1` [I-321]: the LogP is 5.72[a]. On the same count and under the same terms, the same measure for `COc1ccc(CNc2nsc(C(=O)NCc3ccc(C(C)(C)C)cc3)c2Cl)cc1` [I-1199]: 4.69[a]. Turning to `COc1ccc(CNc2nsc(C(=O)Nc3ccc(Cl)cc3Cl)c2Cl)cc1` [I-867], the LogP was 5.22[a]. On the same count and under the same terms, with `O=C(NCc1ccc(Cl)cc1)c1snc(N(C(=O)c2ccccc2)C(=O)c2ccccc2)c1Cl` [I-582] the figure was 4.39[a].

As to `CC(Cc1ccccc1Cl)NC(=O)c1snc(N)c1Cl` (centres unmarked) [II-011], the “LogP [a]” value is 2.64^[a]. In the case of `Nc1cc(C(=O)NCc2cccc(F)c2)sn1` [I-304], the LogP is 1.46[a]. As for `Nc1nsc(C(=O)N2CCc3ccccc32)c1Cl` [II-029], the “LogP [a]” value was found to be 2.08 and the “LogP [b]” value is listed as 2.03. In the case of `CCCC(=O)Nc1nsc(C(=O)NCC2CCCCC2)c1Cl` [I-170], the LogP was 2.84[a].

Take `COc1ccc(CNc2nsc(C(=O)NC(C)(C)c3cccc(C(F)(F)F)c3)c2Cl)cc1` [I-1232]: the LogP was 4.44[a].

Take `C=CCONC(=O)c1snc(NCc2ccc(OC)cc2)c1Cl` [I-1353]: the LogP is 2.62[a]. As for `COc1ccc(CNc2nsc(C(=O)NCc3ccncc3C)c2Cl)cc1` [I-1314], the LogP was 1.52[a]. On to `CCCCn1cc(CNC(=O)c2snc(NCc3ccc(OC)cc3)c2Cl)c(C)n1` [I-1260], for which the LogP is 3.21[a]. Regarding `CC1(C)C2CCC(CNC(=O)c3snc(Cl)c3Cl)C1C2` (centres unmarked) [E-II-023], the “LogP [a]” value is 5.13 and the “LogP [b]” value amounted to 5.02. `Nc1nsc(C(=O)NC2CC23CCCCC3)c1Cl` (centres unmarked) [I-1549]: the LogP was 2.54[a].

With `COc1ccc(CNc2nsc(C(=O)NCc3cccc(OC)n3)c2Cl)cc1` [I-1319], the LogP was 3.41[a]. Same read-out and setting: with `Nc1nsc(C(=O)NCCc2ccccc2)c1-c1ccc(F)cc1` [I-994] the figure was 2.59[a]; with `COc1ccc(CNc2nsc(C(=O)NC3CC(C)(C)Cc4oc(C)cc43)c2Cl)cc1` (centres unmarked) [I-1325], 4.74[a]; with `O=C(Nc1nsc(C(=O)NCc2ccc(Cl)cc2)c1Cl)c1ccccc1` [I-569], 2.97[a]. On the same count and under the same terms, with `Nc1nsc(C(=O)NCc2ccc(Oc3ccccc3)cc2)c1Cl` [I-227] the figure was 2.94[a]; with `COc1ccc(CNc2nsc(C(=O)NCc3cncs3)c2Cl)cc1` [I-1323], 2.39[a]; with `Nc1nsc(C(=O)NCCc2ncc(C(F)(F)F)cc2Cl)c1Br` [I-964], 2.55[a]. For the compound `O=C(NCC1CCCOC1)c1snc(N=C(c2ccccc2)c2ccccc2)c1Cl` (centres unmarked) [II-007], the “LogP [a]” value is 3.71^[a]. For `Cc1c(N)nsc1C(=O)NCc1cccc(F)c1F` [I-147], the LogP was 1.64[a]. Same read-out and setting: with `O=C(NCc1ncc(C(F)(F)F)cc1Cl)c1snc(NC(=O)C2CC2)c1Cl` [I-296] the figure was 2.71[a]; with `Nc1nsc(C(=O)NCC2CCCC2)c1Cl` [I-073], 2.15[a]. Still for that read-out and setting: the same measure for `N#Cc1ccc(CNC(=O)c2snc(NC(=O)C(F)(F)F)c2Cl)cc1` [I-812]: 2.12[a].

For `O=C(NCCc1ncc(C(F)(F)F)cc1Cl)c1cc(N(Cc2ccccc2)Cc2ccccc2)ns1` [I-904], the LogP is 5.03[a]. In the case of `Nc1nsc(C(=O)N[C@@H]2CCCC[C@H]2Cl)c1I` (relative stereo) [I-1565], the LogP was 2.12[a]. For `Cc1cc(C)cc(CN(C(=O)c2snc(N)c2Cl)C2CC2)c1` [I-117], the LogP was 3.15[a].

For `COc1ccc(CNc2nsc(C(=O)N(c3cc(F)cc(F)c3)C3CC3)c2Cl)cc1` [I-918], the LogP was 4.10[a]. Still for that read-out and setting: with `COc1ccc(CNc2nsc(C(=O)Nc3cc(F)cc(F)c3)c2Cl)cc1` [I-862] the figure was 4.15[a]; with `Nc1nsc(C(=O)N(Cc2ccc(F)cc2F)C2CC2)c1Cl` [I-053], 2.62[a]; with `O=C(NCc1ccccc1F)c1snc(NC(=O)C2CC2)c1Cl` [I-093], 2.12[a]. Still for that read-out and setting: the same measure for `C[C@H](NC(=O)c1snc(N(Cc2ccccc2)Cc2ccccc2)c1C1CC1)C1CCCCC1` [I-264]: 6.20[a]; for `CCC(c1ccccc1)N(C(=O)c1snc(NCc2ccc(OC)cc2)c1Cl)C1CC1` (centres unmarked) [I-875]: 4.85[a]. The same measure, in the same setting: with `CC(c1cccc(C(F)(F)F)c1)N(C(=O)c1snc(N)c1Cl)C1CC1` (centres unmarked) [I-956] the figure was 3.29[a].
